Measured values from patent publication US20220193170A1, “Nutraceutical Reduction Prevention and/or Reversion of Multiple Sclerosis” (Therapeutic Solutions International, Inc., priority 2020, published 2022).

Legend:
[1] = system: oxygen-induced retinopathy; details: OIR mice; UDCA 50 mg/kg, P7-P17; cited from earlier work
[2] = system: acute pancreatitis; details: AP mice gavaged with TUDCA; cited from earlier work
[3] = system: osteoblasts; details: in vitro, cited from earlier work
[4] = system: osteoporosis; details: OVX mice, vs PBS treatment group, cited from earlier work
[5] = system: IL-6 production; details: cited from earlier work
[6] = system: Experimental autoimmune encephalomyelitis; assay: Experimental autoimmune encephalomyelitis (EAE) clinical score; format: in vivo; details: female SJL/J mice, by gavage, alone and/or with Copaxone, observed at days 10, 20 and 30; bar graph
Protocol: (§1) Experimental autoimmune encephalomyelitis was induced in female SJL/J (6-8 weeks old) by injection PLP139-151 peptide (50 μg) emulsified in complete Freund's adjuvant (BD Diagnostics), containing killed Mycobacterium tuberculosis (400 μg/ml) in a volume of (50 μl per area). Animals were randomized to receive by QuadraMune™ by gavage, and/or Copaxone. Mice where observed for symptoms at days 10, 20 and 30.
Clinical scores (0, no symptoms; 1, limp tail; 2, partial paralysis of hind limbs; 3, complete paralysis of hind limbs or partial hind and front limb paralysis; 4, tetraparalysis; 5, moribund; 6, death).
as §1, with “PLP^139-151” for “PLP139-151”, “pterostilbene” for “by QuadraMune™”
as §1, with “sulforaphane” for “by QuadraMune™”, “Mice where observed for symptoms at days 10, 20 and 30.” left out

[7] = system: Treg; details: in vivo; cited from earlier work
[8] = system: CD4+, CD25+, FoxP3+ Treg cells; details: responding patients; cited from earlier work
[9] = serum, not significantly different

Molecule: C[C@H](CCC(=O)NCC(=O)O)[C@H]1CC[C@H]2[C@@H]3[C@@H](O)C[C@@H]4C[C@H](O)CC[C@]4(C)[C@H]3CC[C@]12C [GUDCA]
- extension of neovascular and avascular areas [1]: no changes

Molecule: C[C@H](CCC(=O)NCCS(=O)(=O)O)[C@H]1CC[C@H]2[C@@H]3[C@@H](O)C[C@@H]4C[C@H](O)CC[C@]4(C)[C@H]3CC[C@]12C [TUDCA, tauroursodeoxycholic acid]
- extension of neovascular and avascular areas [1]: no changes
- expression of farnesoid-x-receptor (FXR) and its target gene FGF15 [2]: downregulated
- pancreatic and intestinal barrier function injury [2]: mitigated
- proliferation and viability of osteoblasts and osteoblast differentiation and mineralization ([3]; 100 nM, 1 μM): significantly increased
- detrimental effects of methylprednisolone (methylprednisolone-induced osteoblast apoptosis) [3]: neutralized
- CTX level [4, 9]: lower
- PINP level [4, 9]: higher
- percentage bone volume with respect to total bone volume, bone mineral density, distal femur trabeculae [4]: increased
- trabecular structures in the distal femur (micro-CT and histology) [4]: preserved more trabecular structures
- Inflammation and IL-6 production triggered by infection with Brucella abortus [5]: reduced

Molecule: C[S+]([O-])CCCCN=C=S (stereo not drawn) [sulforaphane]
- EAE Score [6]: reduction in EAE Score

Molecule: CC1=CC(=O)C(C(C)C)=CC1=O [thymoquinone]
- EAE Score [6]: reduction in EAE Score

Molecule: Interferon beta
- Treg activity after initiation of therapy [7]: renormalization of Treg activity

Molecule: glatiramer acetate
- CD4+, CD25+, FoxP3+ Treg cells in peripheral blood and cerebral spinal fluid [8]: increased levels
